In US9656988B2 (Pharmacyclics LLC, priority 2013, dated 2017):
Like-named read-outs stand apart in the source and are kept apart here.

Target: BTK (Homo sapiens (Human), UniProt Q06187)
Test: Btk in vitro inhibitory activity (one of Method A TR-FRET, Method B electrophoretic mobility shift, Method C radiometric filter binding)
Type: biochemical
[1] = determined using one of the methods of Example 355a, 355b and 355c, read-out: BTK IC50

BTK, sequence (Q06187 whole entry): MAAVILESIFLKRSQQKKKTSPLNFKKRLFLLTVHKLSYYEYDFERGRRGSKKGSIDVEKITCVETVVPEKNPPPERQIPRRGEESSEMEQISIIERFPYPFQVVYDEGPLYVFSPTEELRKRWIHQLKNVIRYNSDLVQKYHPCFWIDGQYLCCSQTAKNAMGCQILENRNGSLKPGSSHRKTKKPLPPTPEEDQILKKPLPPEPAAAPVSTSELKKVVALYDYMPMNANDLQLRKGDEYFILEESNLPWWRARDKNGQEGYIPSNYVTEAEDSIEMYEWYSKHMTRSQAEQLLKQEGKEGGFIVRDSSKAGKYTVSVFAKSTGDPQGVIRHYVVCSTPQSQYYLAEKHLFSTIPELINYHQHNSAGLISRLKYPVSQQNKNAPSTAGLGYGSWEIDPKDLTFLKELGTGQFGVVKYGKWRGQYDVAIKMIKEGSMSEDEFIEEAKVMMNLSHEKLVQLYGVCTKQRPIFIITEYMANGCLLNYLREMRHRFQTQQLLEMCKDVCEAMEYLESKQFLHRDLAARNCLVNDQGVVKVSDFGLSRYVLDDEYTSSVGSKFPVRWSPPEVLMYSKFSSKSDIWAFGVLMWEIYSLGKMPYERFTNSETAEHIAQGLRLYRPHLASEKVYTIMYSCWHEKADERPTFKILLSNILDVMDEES

Structure (SMILES) | IC50 (Btk (IC50)) [µM] | IC50 [1] [µM] | IC50 (read-out: Btk (IC50)) [µM]
CCC(=O)N1CCC(c2ccc(Nc3nc(N4CCC[C@@H](NC(=O)N5CCCCC5)C4)cnc3C(N)=O)cc2)CC1 [Example 149, (R)-5-(3-(piperidine-1-carboxamido)piperidin-1-yl)-3-(4-(1-propionylpiperidin-4-yl)phenylamino)pyrazine-2-carboxamide] | 0.01 to 0.1 | 0.01 to 0.1 | –
N#CCC(=O)N1CCC(c2ccc(Nc3nc(N4CCC[C@@H](NC(=O)N5CCCCC5)C4)cnc3C(N)=O)cc2)CC1 [Example 150, (R)-3-(4-(1-(2-cyanoacetyl)piperidin-4-yl)phenylamino)-5-(3-(piperidine-1-carboxamido)piperidin-1-yl)pyrazine-2-carboxamide] | – | < 0.01 | < 0.01
CN(C)C(=O)N[C@@H]1CCCN(c2cnc(C(N)=O)c(Nc3ccc(S(C)(=O)=O)cc3)n2)C1 [Example 151, (R)-5-(3-(3,3-dimethylureido)piperidin-1-yl)-3-(4-(methylsulfonyl)phenylamino)pyrazine-2-carboxamide] | – | < 0.01 | < 0.01
CCC(=O)N1CCC(c2ccc(Nc3nc(N4CCC[C@@H](NC(=O)N(C)C)C4)cnc3C(N)=O)cc2)CC1 [Example 152, (R)-5-(3-(3,3-dimethylureido)piperidin-1-yl)-3-(4-(1-propionylpiperidin-4-yl)phenylamino)pyrazine-2-carboxamide] | – | < 0.01 | < 0.01
CN(C)C(=O)N[C@@H]1CCCN(c2cnc(C(N)=O)c(Nc3ccc(C4CCN(C(=O)CC#N)CC4)cc3)n2)C1 [Example 153, (R)-3-(4-(1-(2-cyanoacetyl)piperidin-4-yl)phenylamino)-5-(3-(3,3-dimethylureido)piperidin-1-yl)pyrazine-2-carboxamide] | – | < 0.01 | < 0.01
CN(C)C(=O)N[C@@H]1CCCN(c2cnc(C(N)=O)c(Nc3ccc(C4CCNCC4)cc3)n2)C1 [Example 154, (R)-5-(3-(3,3-dimethylureido)piperidin-1-yl)-3-(4-(piperidin-4-yl)phenylamino)pyrazine-2-carboxamide] | – | < 0.01 | –
CN(C)C(=O)N[C@@H]1CCCN(c2cnc(C(N)=O)c(Nc3ccc(C4CCN(C5CCCC5)CC4)cc3)n2)C1 [Example 155, (R)-3-(4-(1-cyclopentylpiperidin-4-yl)phenylamino)-5-(3-(3,3-dimethylureido)piperidin-1-yl)pyrazine-2-carboxamide] | – | < 0.01 | < 0.01
CN(C/C=C/C(=O)N1CCC[C@@H](N(C)c2cnc(C(N)=O)c(Nc3ccc(C(=O)N4CCOCC4)cc3)n2)C1)C1CC1 [Example 156, (R,E)-5-((1-(4-(cyclopropyl(methyl)amino)but-2-enoyl)piperidin-3-yl)(methyl)amino)-3-(4-(morpholine-4-carbonyl)phenylamino)pyrazine-2-carboxamide] | – | < 0.01 | < 0.01
CC#CC(=O)N1CCC[C@@H](N(C)c2cnc(C(N)=O)c(Nc3ccc(C(=O)N4CCOCC4)cc3)n2)C1 [Example 157, (R)-5-((1-but-2-ynoylpiperidin-3-yl)(methyl)amino)-3-(4-(morpholine-4-carbonyl)phenylamino)pyrazine-2-carboxamide] | – | < 0.01 | < 0.01

Further lines, results first:

IC50 (Btk (IC50)) [µM] | IC50 [1] [µM] | IC50 (read-out: Btk (IC50)) [µM] | Structure (SMILES)
– | < 0.01 | – | CN(C)C/C=C/C(=O)N1CCC[C@@H](N(C)c2cnc(C(N)=O)c(Nc3ccc(Oc4ccccc4)cc3)n2)C1 [Example 158, (R,E)-5-((1-(4-(dimethylamino)but-2-enoyl)piperidin-3-yl)(methyl)amino)-3-(4-phenoxyphenylamino)pyrazine-2-carboxamide]
0.1 to 1 | 0.1 to 1 | – | CCOc1ccc(C(=O)N[C@@H]2CCCN(c3nnc(C(N)=O)c(Nc4ccc(C#N)cc4)n3)C2)cc1 [Example 159, (R)-5-(4-cyanophenylamino)-3-(3-(4-ethoxybenzamido)piperidin-1-yl)-1,2,4-triazine-6-carboxamide]
– | 0.01 to 0.1 | – | COc1ccc(C(=O)N[C@@H]2CCCN(c3cnc(C(N)=O)c(Nc4ccc(C(C)C)cc4)n3)C2)cc1 [Example 160, (R)-3-(4-isopropylphenylamino)-5-(3-(4-methoxybenzamido)piperidin-1-yl)pyrazine-2-carboxamide]
– | < 0.01 | < 0.01 | COc1ccc(C(=O)N[C@@H]2CCCN(c3cnc(C(N)=O)c(Nc4ccc(N5CCS(=O)(=O)CC5)cc4)n3)C2)cc1 [Example 161, (R)-5-(3-(4-methoxybenzamido)piperidin-1-yl)-3-(4-(1,1-dioxothiomorpholino)phenylamino)pyrazine-2-carboxamide]
– | < 0.01 | 0.01 to 0.1 | COc1ccc(C(=O)N[C@@H]2CCCN(c3cnc(C(N)=O)c(Nc4ccc(C5CCNCC5)cc4F)n3)C2)cc1 [Example 162, (R)-3-(2-fluoro-4-(piperidin-4-yl)phenylamino)-5-(3-(4-methoxybenzamido)piperidin-1-yl)pyrazine-2-carboxamide]
– | < 0.01 | < 0.01 | COc1ccc(C(=O)N[C@@H]2CCCN(c3cnc(C(N)=O)c(Nc4ccc(C5CCNCC5)c(F)c4)n3)C2)cc1 [Example 163, (R)-3-(3-fluoro-4-(piperidin-4-yl)phenylamino)-5-(3-(4-methoxybenzamido)piperidin-1-yl)pyrazine-2-carboxamide]
– | < 0.01 | – | COc1ccc(C(=O)N[C@@H]2CCCN(c3cnc(C(N)=O)c(Nc4ccc(N5CCCCC5)cc4)n3)C2)cc1 [Example 164, (R)-5-(3-(4-methoxybenzamido)piperidin-1-yl)-3-(4-(piperidin-1-yl)phenylamino)pyrazine-2-carboxamide]
– | < 0.01 | – | CN1CCC(c2ccc(Nc3nc(N4CCC[C@@H](NC(=O)N(C)C)C4)cnc3C(N)=O)cc2)CC1 [Example 165]
– | < 0.01 | – | CCN(C)C(=O)N[C@@H]1CCCN(c2cnc(C(N)=O)c(Nc3ccc(C4CCN(C)CC4)cc3)n2)C1 [Example 166, (R)-5-(3-(3-ethyl-3-methylureido)piperidin-1-yl)-3-(4-(1-methylpiperidin-4-yl)phenylamino)pyrazine-2-carboxamide]
– | < 0.01 | < 0.01 | CCN(CC)C(=O)N[C@@H]1CCCN(c2cnc(C(N)=O)c(Nc3ccc(C4CCN(C)CC4)cc3)n2)C1 [Example 167, (R)-5-(3-(3,3-diethylureido)piperidin-1-yl)-3-(4-(1-methylpiperidin-4-yl)phenylamino)pyrazine-2-carboxamide]
– | < 0.01 | < 0.01 | CN1CCC(c2ccc(Nc3nc(N4CCC[C@@H](NC(=O)c5ccc(F)cc5)C4)cnc3C(N)=O)cc2)CC1 [Example 168, (R)-5-(3-(4-fluorobenzamido)piperidin-1-yl)-3-(4-(1-methylpiperidin-4-yl)phenylamino)pyrazine-2-carboxamide]
– | < 0.01 | – | CCOc1ccc(C(=O)N[C@@H]2CCCN(c3cnc(C(N)=O)c(Nc4ccc(C5CCN(C)CC5)cc4)n3)C2)cc1 [Example 169, (R)-5-(3-(4-ethoxybenzamido)piperidin-1-yl)-3-(4-(1-methylpiperidin-4-yl)phenylamino)pyrazine-2-carboxamide]
– | < 0.01 | < 0.01 | CN(C)C(=O)N[C@@H]1CCCN(c2cnc(C(N)=O)c(Nc3ccc(C4CCN(C(=O)N(C)C)CC4)cc3)n2)C1 [Example 170, (R)-3-(4-(1-(dimethylcarbamoyl)piperidin-4-yl)phenylamino)-5-(3-(3,3-dimethylureido)piperidin-1-yl)pyrazine-2-carboxamide]
